Source: paper PMC2953793 (Cancer chemotherapy and pharmacology, 2009)
“And” between values parts separate entries of the source, which are not always exact repeats. Identical values can stand only once. Like-named read-outs stand apart in the source and are kept apart here.

Tests used:
PARP [1] = system: PARP
[2] = system: human colon cancer and lung cancer xenograft models; conditions: human colon cancer (ref 12) and lung cancer xenograft models (ref 1); cited from earlier work
[3] = CD-1 mice; cited from earlier work
PARP [4] = conditions: phase 0 study, National Cancer Institute; single oral dose of 25 or 50 mg; cited from earlier work
PARP [5] = conditions: cited from earlier work
[6] = individual animals, single 5 mg/kg dose, 5 mg/kg
[7] = individual animals, single 5 mg/kg dose, model parameter, 5 mg/kg
[8] = mean of three animals, single 5 mg/kg dose, model parameter

- V1/F model-estimated apparent volume of distribution [6]: 40.0 L/kg and 24.2 L/kg
- t1/2P model-estimated plasma half-life [6]: 3.9 h and 4.3 h
- K21 rate constant for transfer from CSF to plasma [7]: 0.805 h⁻¹ and 0.420 h⁻¹ and 0.913 h⁻¹
- Ka absorption rate constant [7]: 12.5 h⁻¹ and 53.5 h⁻¹ and 44.2 h⁻¹
- Ke plasma elimination rate constant [7]: 0.18 h⁻¹ and 0.16 h⁻¹
- τ time-delay for absorption of oral drug [7]: 0.76 h and 0.78 h and 2.75 h
- Vd/F (male, rhesus monkey, plasma, po, 5 mg/kg, V1/F model-estimated apparent volume of distribution, individual animals, single 5 mg/kg dose): 41.5 L/kg
- K12 rate constant for transfer from plasma to CSF [8]: 9.4e-06 h⁻¹
- K21 rate constant for transfer from CSF to plasma [8]: 0.71 h⁻¹
- Ka absorption rate constant [8]: 36.7 h⁻¹
- τ time-delay for absorption of oral drug [8]: 1.43 h
- time delay for absorption (range across animals, oral 5 mg/kg): 46 to 165 min
Compound: C[C@]1(c2nc3c(C(N)=O)cccc3[nH]2)CCCN1 [ABT-888]
- % PARP inhibition (PARP [1]; individual animals, PBMCs, 2 h post versus pre-treatment, single oral 5 mg/kg): 52% and 71% and 78%
- reduction of PARP activity in PBMCs compared with pre-treatment levels (PARP [1]; mean ± SD of three animals, 2 h after a single dose): 67 ± 13%
- PARP inhibition in NHP PBMCs (PARP [1]; range across animals, 2 h after single oral dose 5 mg/kg): 52–78%
- potentiation of radiation [2]: potentiates radiation
- accumulation in intracranial tumors versus normal brain [3]: preferentially accumulate in intracranial tumors versus normal brain
- PARP inhibition in PBMCs and biopsied tumors (PARP [4]): > 90%
- concentrations required for ex vivo PARP inhibition in PBMCs (PARP [5]): 0.1 to 0.3 µM
- K12 rate constant for transfer from plasma to CSF [7]: 7e-06 h⁻¹ and 4.7e-06 h⁻¹ and 1.65e-05 h⁻¹
